The NIST ThermoML archive (doi:10.1021/je100089s)

Assay: xn = mol fraction of the nth substance listed
Conditions: Liquid, Vibrating tube method

OCCO [1,2-ethanediol] + C[S+](C)[O-]
mass density [kg/m3]
Conditions	101 kPa	10000 kPa	25000 kPa	50000 kPa	75000 kPa	100000 kPa
278.15 K, x2 = 0	1123.77	1127.65	1133.2	1141.71	1149.55	1157.24
278.15 K, x2 = 0.00452	1123.78	–	–	–	–	–
278.15 K, x2 = 0.00721	1123.81	–	–	–	–	–
278.15 K, x2 = 0.0181	–	1127.79	1133.35	1141.89	1149.87	1157.59
278.15 K, x2 = 0.01811	1123.89	–	–	–	–	–
278.15 K, x2 = 0.03033	1123.98	–	–	–	–	–
278.15 K, x2 = 0.04027	1124.05	–	–	–	–	–
278.15 K, x2 = 0.0403	–	1127.98	1133.57	1142.21	1150.25	1158.01
278.15 K, x2 = 0.07007	1124.18	–	–	–	–	–
278.15 K, x2 = 0.0701	–	1128.13	1133.74	1142.44	1150.68	1158.48
278.15 K, x2 = 0.1097	1124.31	1128.3	1133.94	1142.73	1151.17	1159.03
278.15 K, x2 = 0.1408	1124.41	1128.43	1134.12	1142.98	1151.53	1159.45
278.15 K, x2 = 0.1934	1124.41	1128.44	1134.19	1143.24	1151.93	1159.97
278.15 K, x2 = 0.234	1124.34	1128.39	1134.22	1143.4	1152.14	1160.33
278.15 K, x2 = 0.3244	1124.05	1128.13	1134.17	1143.66	1152.48	1160.9
278.15 K, x2 = 0.3764	1123.76	1127.85	1134.01	1143.73	1152.55	1161.23
278.15 K, x2 = 0.4429	1123.28	1127.37	1133.7	1143.69	1152.53	1161.47
278.15 K, x2 = 0.4892	1122.88	1126.97	1133.44	1143.64	1152.45	1161.74
278.15 K, x2 = 0.5654	1122.14	1126.24	1132.95	1143.45	1152.24	1162
278.15 K, x2 = 0.6298	1121.26	–	–	–	–	–
278.15 K, x2 = 0.6946	1120.52	–	–	–	–	–
288.15 K, x2 = 0	–	1120.87	1126.51	1135.26	1143.65	1151.55
288.15 K, x2 = 0.0181	–	1120.9	1126.66	1135.53	1143.78	1151.74
288.15 K, x2 = 0.0403	–	1121	1126.79	1135.69	1144	1152.03
288.15 K, x2 = 0.0701	–	1121.06	1126.89	1135.92	1144.4	1152.42
288.15 K, x2 = 0.1097	–	1121.09	1126.97	1136.1	1144.77	1152.92
288.15 K, x2 = 0.1408	–	1121.09	1127.02	1136.28	1145.05	1153.32
288.15 K, x2 = 0.1934	–	1121	1127.02	1136.35	1145.29	1153.81
288.15 K, x2 = 0.234	–	1120.87	1127.02	1136.51	1145.4	1154.03
288.15 K, x2 = 0.3244	1115.95	1120.42	1126.73	1136.43	1145.62	1154.61
288.15 K, x2 = 0.3764	1115.49	1119.99	1126.45	1136.4	1145.68	1154.78
288.15 K, x2 = 0.4429	1114.8	1119.41	1126.08	1136.29	1145.64	1154.83
288.15 K, x2 = 0.4892	1114.25	1118.92	1125.69	1136.07	1145.55	1154.79
288.15 K, x2 = 0.5654	1113.29	1118.05	1125.01	1135.67	1145.31	1154.87
288.15 K, x2 = 0.6298	1112.27	–	–	–	–	–
288.15 K, x2 = 0.6946	1111.32	1116.19	1123.4	1134.56	1144.55	1154.68
288.15 K, x2 = 0.8142	1109.13	–	–	–	–	–
298.15 K, x2 = 0	–	1113.97	1119.78	1128.78	1137.41	1145.51
298.15 K, x2 = 0.0181	–	1114	1119.85	1128.92	1137.62	1145.75
298.15 K, x2 = 0.0403	–	1114.01	1119.92	1129.12	1137.93	1145.93
298.15 K, x2 = 0.0701	–	1114.01	1119.95	1129.25	1138.31	1146.24
298.15 K, x2 = 0.1097	–	1113.67	1119.88	1129.29	1138.51	1146.54
298.15 K, x2 = 0.1408	1109.42	1113.44	1119.71	1129.45	1138.73	1146.83
298.15 K, x2 = 0.1934	1109.06	1112.87	1119.4	1129.48	1138.98	1147.29
298.15 K, x2 = 0.234	1108.72	1112.42	1119.03	1129.27	1139.19	1147.46
298.15 K, x2 = 0.3244	1107.82	1111.54	1118.39	1128.95	1139.38	1147.77
298.15 K, x2 = 0.3764	1107.21	1110.95	1117.96	1128.79	1139.43	1147.93
298.15 K, x2 = 0.4429	1106.29	–	–	1128.43	1139.4	1148.01
298.15 K, x2 = 0.4892	1105.6	1109.49	–	1128.14	1139.31	1147.94
298.15 K, x2 = 0.5654	1104.44	1108.61	1116.04	1127.67	1139.23	1147.85
298.15 K, x2 = 0.6946	1102.13	1106.65	1114.43	1126.58	1138.74	1147.55
298.15 K, x2 = 0.8142	1099.6	1104.54	1112.6	1125.27	1137.98	1146.87
298.15 K, x2 = 0.867	1098.37	–	–	–	–	–
298.15 K, x2 = 0.9266	1097.09	–	1110.81	1123.79	1137.07	1146.03
298.15 K, x2 = 0.9836	–	1101.52	–	1123.02	–	–
298.15 K, x2 = 0.9968	1095.42	–	–	–	–	–
308.15 K, x2 = 0	–	1107.05	1112.97	1122.28	1131.41	1139.57
308.15 K, x2 = 0.0181	–	1107.03	1113.01	1122.41	1131.6	1139.78
308.15 K, x2 = 0.0403	–	1106.95	1112.98	1122.46	1131.72	1139.87
308.15 K, x2 = 0.07007	1102.45	–	–	–	–	–
308.15 K, x2 = 0.0701	–	1106.68	1112.81	1122.47	1131.86	1140.08
308.15 K, x2 = 0.1097	1102.12	1106.18	1112.54	1122.52	1132.17	1140.24
308.15 K, x2 = 0.1408	1101.88	1105.87	1112.37	1122.47	1132.33	1140.54
308.15 K, x2 = 0.1934	1101.33	1105.29	1111.97	1122.32	1132.37	1140.74
308.15 K, x2 = 0.234	1100.86	1104.74	1111.63	1122.23	1132.39	1140.88
308.15 K, x2 = 0.3244	1099.65	1103.53	1110.76	1121.85	1132.45	1140.94
308.15 K, x2 = 0.3764	1098.89	–	–	1121.58	1132.41	1140.97
308.15 K, x2 = 0.4429	1097.76	1101.57	1109.29	1121.09	1132.2	1140.85
308.15 K, x2 = 0.4892	1096.94	1100.74	1108.61	1120.71	1132.04	1140.71
308.15 K, x2 = 0.5654	–	1099.47	1107.59	1120.07	1131.68	1140.47
308.15 K, x2 = 0.6298	1094.18	–	–	–	–	–
308.15 K, x2 = 0.6946	1092.91	1097.4	1105.69	1118.74	1130.89	1139.72
308.15 K, x2 = 0.8142	1090.07	1094.91	1103.81	–	1129.86	1138.6
308.15 K, x2 = 0.9266	1087.25	1092.99	1101.96	1115.8	1128.85	1137.41
308.15 K, x2 = 0.9577	1086.43	–	–	–	–	–
308.15 K, x2 = 0.9836	1085.76	1091.87	1100.89	1115.04	1128.14	1136.73
308.15 K, x2 = 0.992	1085.53	–	–	–	–	–
308.15 K, x2 = 0.9968	1085.39	–	–	–	–	–
323.15 K, x2 = 0	1092.12	–	–	1112.75	1122.55	1130.66
323.15 K, x2 = 0.00452	1092.05	–	–	–	–	–
323.15 K, x2 = 0.00721	1092.03	–	–	–	–	–
323.15 K, x2 = 0.0181	–	–	–	1112.77	1122.62	1130.77
323.15 K, x2 = 0.01811	1091.95	–	–	–	–	–
323.15 K, x2 = 0.03033	1091.83	–	–	–	–	–
323.15 K, x2 = 0.04027	1091.72	–	–	–	–	–
323.15 K, x2 = 0.0403	–	–	–	1112.8	1122.72	1130.87
323.15 K, x2 = 0.07007	1091.39	–	–	–	–	–
323.15 K, x2 = 0.0701	–	–	1102.37	1112.82	1122.84	1130.96
323.15 K, x2 = 0.1097	1090.85	1095.4	1102.05	1112.71	1122.87	1131
323.15 K, x2 = 0.1408	1090.44	1095	1101.79	1112.64	1122.91	1131.06
323.15 K, x2 = 0.1934	1089.61	1094.25	1101.25	1112.4	1122.85	1130.99
323.15 K, x2 = 0.234	–	1093.65	1100.8	1112.23	1122.77	1130.94
323.15 K, x2 = 0.3244	1087.33	1092.16	1099.69	1111.61	1122.44	1130.63
323.15 K, x2 = 0.3764	1086.33	1091.26	1098.98	1111.18	1122.18	1130.38
323.15 K, x2 = 0.4429	1084.93	1090	1097.94	1110.52	1121.69	1129.92
323.15 K, x2 = 0.4892	1083.92	–	1097.2	–	1121.34	1129.57
323.15 K, x2 = 0.5654	1082.23	1087.55	–	1109.22	1120.75	1128.99
323.15 K, x2 = 0.6298	1080.61	–	–	–	–	–
323.15 K, x2 = 0.6946	1079.07	1084.73	1093.6	1107.58	1119.48	1127.72
323.15 K, x2 = 0.8142	1075.74	1081.78	1091.06	1105.68	1117.9	1126.09
323.15 K, x2 = 0.867	1074.15	–	–	–	–	–
323.15 K, x2 = 0.9266	1072.5	1078.85	–	1103.78	1116.27	1124.43
323.15 K, x2 = 0.9577	1071.55	–	–	–	–	–
323.15 K, x2 = 0.9836	1070.76	1077.32	1087.21	–	1115.35	1123.49
323.15 K, x2 = 0.992	1070.5	–	–	–	–	–
323.15 K, x2 = 0.9968	1070.35	–	–	–	–	–
